Measured values taken from ChEMBL document CHEMBL3507680, “University of Dundee, Gates Library screen for HepG2 cell viability”.

Assay: Human HepG2 cell viability assay in 384 well format
Type: toxicity, cell-based
Parameters: dose 125 nL, time 70.5 hour; cytotoxicity at 70.5 h: concentration not given beside the values
Details: HepG2 cells, read-out: Inhibition

| SMILES | cytotoxicity at 70.5 h [%] |
| --- | --- |
| CCc1ccc(CN(C)Cc2nc(COc3ccccc3)no2)nc1 | -7.21 |
| CCc1csc(CNCC(=O)Nc2ccc(Cl)c(C)c2)n1 | -6.59 |
| C=C(C)COc1cccc(CNC(CC)c2ccnn2C)c1 (stereo unspecified) | 1.1 |
| CCC[C@H]1CN(Cc2ccc(N(C)C)nc2)C[C@@H]1NC(=O)CCOC | -10.3 |
| Cn1c(N2CCOCC2)nc2cc(C(=O)NCC(F)(F)F)ccc21 | -9.13 |
| CCc1ccccc1OC1CN(C(=O)c2sccc2N)C1 | -3.46 |
| O=C(O)c1cc(-c2ccncc2F)cc(S(=O)(=O)N2CCCCCC2)c1 | -23.6 |
| CC(C)Oc1cccc(F)c1C(C(=O)O)N1CCCN(C)CC1 (stereo unspecified) | 26.8 |
| COCC1CCCCN1Cc1nc(-c2ccoc2)oc1C (stereo unspecified) | -1.54 |
| CN(C)Cc1cc(-c2nccn2CCc2cccnc2)ccc1O | -5.02 |
| Cc1ccccc1C(=O)NC[C@@H]1CCN(C(=O)C2(O)CCCC2)C[C@H]1O | -4.64 |
| CN(Cc1cc2cc(F)ccc2[nH]1)c1cc(C2CCCNC2)ncn1 (stereo unspecified) | -0.169 |
| Cc1ncsc1C(=O)N1CCCC(c2nccn2Cc2cscn2)C1 (stereo unspecified) | -5.99 |
| CC1CCCCN1CCN(C)C(=O)c1cc(CN2CCC(O)CC2)on1 (stereo unspecified) | -0.898 |
| Cc1cccc(C(C(=O)NCCn2cccc2)N(C)C)c1 (stereo unspecified) | -12.1 |
| CSc1ccccc1C(=O)C1CCCN(Cc2cc(C(C)C)[nH]n2)C1 (stereo unspecified) | -6.68 |
| OC[C@H]1CCN(Cc2ccc3ccccc3n2)C[C@@H]1O | -4.84 |
| CNS(=O)(=O)c1ccc(CN2CCN(Cc3ncccc3C)CC2)cc1 | -15.3 |
| O=C(CCc1nc(Cl)n[nH]1)N1CCC2(CCCNC2=O)C1 (stereo unspecified) | 4.11 |

| SMILES | cytotoxicity at 70.5 h [%] |
| --- | --- |
| Cc1cc(CN2CCCC2)cc(Oc2nc(C)cnc2C)c1 | -5.62 |
| CN1CCC2(CCN(S(=O)(=O)c3ccc(-c4cnco4)s3)CC2)C1 | -8.53 |
| COc1cc2[nH]c(=O)c(CN3CCCC(CO)C3)cc2c(OC)c1OC (stereo unspecified) | -13.1 |
| CCc1cnc(N)nc1N1CCCC2(CCOCC2)C1 | -3.13 |
| Cc1nonc1N1CCN(Cc2nc(CC3CC3)no2)CC1 | -2.56 |
| CCOc1ccc2[nH]c(=O)c(CN3CCC(n4cnnc4)CC3)cc2c1 | -4.91 |
| CC(C)c1cc(C2CCCN2Cc2nc(-c3ccco3)no2)no1 (stereo unspecified) | -2.57 |
| CCc1c(C)sc2ncnc(N3CC[C@@H](N4CCC(O)CC4)[C@H](O)C3)c12 | -10.6 |
| CC(=O)NCc1nc(CC(C)C)nn1-c1cccc(C)c1 | -2.35 |
| COCc1noc(Cn2c(=O)[nH]c3ccccc32)n1 | -10.2 |
| CO[C@H]1CN(C(=O)c2cc3ccccc3[nH]2)CC[C@H]1N | 18.2 |
| CC(C)CN1CC2(CCN(C(=O)C3CSC(C)(C)C(=O)N3)CC2)CC1=O (stereo unspecified) | -1.86 |
| CC(=O)N1CCN(C(=O)c2cc(C(C)C)no2)[C@H]2CS(=O)(=O)C[C@H]21 | -3.64 |
| CSc1ncc(C(=O)N2CCC(O)(CN3CCOCC3)C(C)(C)C2)cn1 (stereo unspecified) | -0.923 |
| CCc1ncc(C(=O)N2CCC(O)(CN3CCOCC3)C(C)(C)C2)cn1 (stereo unspecified) | -0.715 |
| CCCc1nc(C(=O)N2CCN(C(=O)c3ccc(OC)cc3)CC2)cs1 | -5.88 |
| O=C(c1ccco1)N1CCN(Cc2nc(C3CC3)no2)CC1 | -5.91 |
| CN(CC(=O)N1CCC(OCc2cccnc2)CC1)c1ccccc1 | -17.1 |
| COc1ccccc1N1CCN(C(=O)CCCS(N)(=O)=O)C(C)C1 (stereo unspecified) | -5.3 |

| SMILES | cytotoxicity at 70.5 h [%] |
| --- | --- |
| COc1ccc(N2CCC(N3CCOC(C(F)(F)F)C3)CC2)cc1 (stereo unspecified) | -7.02 |
| O=S(=O)(N1CCOCC1)N1CCCCC1CCn1cccn1 (stereo unspecified) | 3.71 |
| CC(C)[C@@H]1CN(C(=O)CN(C)Cc2ccc(F)cc2)C[C@H]1C(=O)O | -1.04 |
| Cc1nn(C)c(C)c1CN(Cc1cccn1-c1cccnc1)C(C)C | 11.8 |
| COc1ccc(Cn2c(Cc3c(C)n[nH]c3C)n[nH]c2=O)cc1 | -12.9 |
| CN(CCc1noc(C2CC2)n1)C(=O)CN1C(=O)COc2ccccc21 | -4.64 |
| CCCc1nc(C)c(CN2CC3(CCOC3)CCC2=O)s1 (stereo unspecified) | -8.32 |
| O=C(O)c1cccnc1CN(Cc1ccsc1)C1CC1 | -6.7 |
| CCN(CCOC)C(=O)c1cc(COc2ccc3c(c2)CCCC3)on1 | -3.35 |
| Cc1ccccc1C(CC(=O)NCC(N)=O)c1ccccc1 (stereo unspecified) | -5.12 |
| COCCC(=O)N1CCCC(CCC(=O)NCc2ccccc2F)C1 (stereo unspecified) | -6.55 |
| CCOC(=O)c1coc(N2CCC(C(C)N3CCCC3)CC2)n1 (stereo unspecified) | -1.58 |
| CCC[C@H]1CN(CCS(C)(=O)=O)C[C@@H]1NC(=O)c1cc(CC)on1 | -2.15 |
| CN(C)Cc1nnc(C2CCCN(c3cc(C(F)(F)F)ccn3)C2)n1C (stereo unspecified) | -11.1 |
| Cc1ccc(CN2CCN(C3CCCC3)CC2CCO)o1 (stereo unspecified) | 8.76 |
| CC1(C)CN(Cc2nnc(-c3cccnc3)o2)CC[C@]1(C)O | 8.67 |
| CCC(C)(C)c1cc(-c2c(C)nn(CCO)c2C)c(C#N)c(N)n1 | 12.5 |
| CN(C(=O)CCc1cccs1)C1CCCN(C2Cc3ccccc3C2)C1 (stereo unspecified) | -1.24 |
